# How the values were obtained:
# [1] = physchem
smiles,measurement,setting,value
Cc1nnc(Cl)c(-c2c(F)cccc2F)c1NC(C)C(C)C (racemic) [1-62],chromatographic logP,[1],2.99
Cc1nnc(Cl)c(-c2c(F)cccc2Cl)c1NC(C)C(C)C (racemic) [1-82],chromatographic logP,[1],3.21
Cc1nnc(Cl)c(-c2c(F)cccc2F)c1N[C@H](C)C(C)C [1-46],chromatographic logP,[1],3.04
Cc1nnc(Cl)c(-c2c(F)cccc2F)c1NCC(C)C [1-48],chromatographic logP,[1],2.64
Cc1nnc(Cl)c(-c2c(F)cccc2F)c1NCC(C)(C)C [1-49],chromatographic logP,[1],3.06
Cc1nnc(Cl)c(-c2c(F)cccc2F)c1NC(C)C [1-51],chromatographic logP,[1],2.36
Cc1nnc(Cl)c(-c2c(F)cccc2F)c1NCC1CC1 [1-52],chromatographic logP,[1],2.46
COCC(C)Nc1c(C)nnc(Cl)c1-c1c(F)cccc1F (stereo not shown) [1-53],chromatographic logP,[1],2.25
"Cc1nnc(Cl)c(-c2c(F)cccc2F)c1N1CCC(C)CC1 [1-58, 3-Chlor-4-(2,6-difluorphenyl)-6-methyl-5-(4-methylpiperidin-1-yl)pyridazin]",chromatographic logP,[1],3.87
Cc1nnc(Cl)c(-c2c(F)cccc2F)c1N1CCOCC1 [1-59],chromatographic logP,[1],2.19
Cc1nnc(Cl)c(-c2c(F)cccc2F)c1NCc1ccccc1 [1-63],chromatographic logP,[1],2.67
Cc1nnc(Cl)c(-c2c(F)cccc2F)c1N1CCCC1C (stereo not shown) [1-64],chromatographic logP,[1],3.08
Cc1nnc(Cl)c(-c2c(F)cccc2F)c1N1CCCC1 [1-65],chromatographic logP,[1],2.57
Cc1nnc(Cl)c(-c2c(F)cccc2F)c1N(C)CC(C)C [1-66],chromatographic logP,[1],3.65
Cc1nnc(Cl)c(-c2c(F)cccc2Cl)c1NC1CC1 [1-86],chromatographic logP,[1],2.35
Cc1nnc(Cl)c(-c2c(F)cccc2Cl)c1N1CCOCC1 [1-94],chromatographic logP,[1],2.39
Cc1nnc(Cl)c(-c2c(F)cccc2Cl)c1N1CC[Si](C)(C)CC1 [1-95],chromatographic logP,[1],4.75
Cc1nnc(Cl)c(-c2c(F)cccc2Cl)c1N1CCC2(C)CC2C1 (stereo not shown) [1-96],chromatographic logP,[1],4.25
Cc1nnc(Cl)c(-c2c(F)cccc2Cl)c1N1CCCC1C (stereo not shown) [1-97],chromatographic logP,[1],3.32
Cc1nnc(Cl)c(-c2c(F)cccc2Cl)c1N1CCCC1 [1-98],chromatographic logP,[1],2.82
Cc1nnc(Cl)c(-c2c(F)cccc2Cl)c1Nc1ccc(Cl)cc1 [1-99],chromatographic logP,[1],3.18
Cc1nnc(Cl)c(-c2c(F)cccc2F)c1OCC(C)C [2-32],chromatographic logP,[1],3.57
C#CCOc1c(C)nnc(Cl)c1-c1c(F)cccc1F [2-36],chromatographic logP,[1],2.5
Cc1nnc(Cl)c(-c2c(F)cccc2F)c1Oc1ccc(Cl)cc1 [2-39],chromatographic logP,[1],3.86
Cc1nnc(Cl)c(-c2c(F)cccc2F)c1OCC1CC1 [2-41],chromatographic logP,[1],3.1
"COc1ccc(COc2c(C)nnc(Cl)c2-c2c(F)cccc2F)cc1 [2-42, 3-Chlor-4-(2,6-difluorphenyl)-5-(4-Methoxybenzyloxy)-6-methylpyridazin]",chromatographic logP,[1],3.35
Cc1nnc(Cl)c(-c2c(F)cccc2F)c1OCC1(C)CC1 [2-43],chromatographic logP,[1],3.53
Cc1nnc(Cl)c(-c2c(F)cccc2Cl)c1Oc1ccc(Cl)cc1 [2-60],chromatographic logP,[1],4.13
Cc1nnc(Br)c(-c2c(F)cccc2Cl)c1Oc1ccc(Cl)cc1 [2-62],chromatographic logP,[1],4.12
Cc1nnc(Cl)c(-c2c(F)cccc2Cl)c1Oc1ccccc1F [2-65],chromatographic logP,[1],3.51
Cc1nnc(Cl)c(-c2c(F)cccc2Cl)c1Oc1cccc(F)c1 [2-66],chromatographic logP,[1],3.65
Cc1nnc(Cl)c(-c2c(F)cccc2Cl)c1Oc1ccc(F)cc1 [2-67],chromatographic logP,[1],3.56
Cc1nnc(Cl)c(-c2c(F)cccc2Cl)c1Oc1cccc(C(F)(F)F)c1 [2-68],chromatographic logP,[1],4.13
Cc1nnc(Cl)c(-c2c(F)cccc2Cl)c1Oc1cccc(C#N)c1 [2-69],chromatographic logP,[1],3.14
Cc1nnc(Cl)c(-c2c(F)cccc2Cl)c1Oc1ccc(Cl)cc1Cl [2-70],chromatographic logP,[1],4.46
Cc1nnc(Cl)c(-c2c(F)cccc2Cl)c1Oc1cccc(C(C)(C)C)c1 [2-71],chromatographic logP,[1],4.92
COc1cc(Cl)cc(Oc2c(C)nnc(Cl)c2-c2c(F)cccc2Cl)c1 [2-72],chromatographic logP,[1],4.13
COc1cccc(Oc2c(C)nnc(Cl)c2-c2c(F)cccc2Cl)c1 [2-73],chromatographic logP,[1],3.56
Cc1nnc(Cl)c(-c2c(F)cccc2Cl)c1Oc1cccc(Cl)c1 [2-74],chromatographic logP,[1],4.03
Cc1nnc(Cl)c(-c2c(F)cccc2Cl)c1Oc1ccc(Cl)c(Cl)c1 [2-75],chromatographic logP,[1],4.41
Cc1cccc(Oc2c(C)nnc(Cl)c2-c2c(F)cccc2Cl)c1 [2-76],chromatographic logP,[1],3.99
Cc1nnc(Cl)c(-c2c(F)cccc2Cl)c1Oc1ccc(C#N)cc1 [2-77],chromatographic logP,[1],3.18
Cc1nnc(Cl)c(-c2c(F)cccc2Cl)c1Oc1cccc(N(C)C)c1 [2-78],chromatographic logP,[1],3.85
Cc1nnc(Cl)c(-c2c(F)cccc2Cl)c1Oc1cccc(OC(F)(F)F)c1 [2-79],chromatographic logP,[1],4.32
Cc1nnc(Cl)c(-c2c(F)cccc2Cl)c1Oc1cc(Cl)ccc1Cl [2-80],chromatographic logP,[1],4.27
Cc1nnc(Cl)c(-c2c(F)cccc2Cl)c1Oc1cc(Cl)cc(Cl)c1 [2-81],chromatographic logP,[1],4.61
Cc1nnc(Cl)c(-c2c(F)cccc2Cl)c1Oc1ccc(Oc2ccc(Cl)cc2)cc1 [2-82],chromatographic logP,[1],5.03
COCCOCCOc1c(C)nnc(Cl)c1-c1c(F)cccc1Cl [2-83],chromatographic logP,[1],2.58
COCCOc1c(C)nnc(Cl)c1-c1c(F)cccc1Cl [2-84],chromatographic logP,[1],2.6
Cc1nnc(Cl)c(-c2c(F)cccc2Cl)c1OC1CCOCC1 [2-85],chromatographic logP,[1],2.68
"Cc1nnc(Cl)c(-c2c(F)cccc2F)c1Sc1ccc(Cl)cc1 [3-20, 3-Chlor-4-(2,6-difluorphenyl)-5-(4-chlorphenylsulfanyl)-6-methylpyridazin]",chromatographic logP,[1],4.35
Cc1nnc(Cl)c(-c2c(F)cccc2F)c1SC(C)C(C)C (stereo not shown) [3-21],chromatographic logP,[1],4.37
CCC(C)Sc1c(C)nnc(Cl)c1-c1c(F)cccc1F (stereo not shown) [3-23],chromatographic logP,[1],3.99
Cc1nnc(Cl)c(-c2c(F)cccc2F)c1SC(C)C [3-25],chromatographic logP,[1],3.57
"Cc1nnc(Cl)c(-c2c(F)cccc2Cl)c1Sc1ccc(Cl)cc1 [3-33, 3-Chlor-4-(2-chlor-6-fluorphenyl)-5-(4-chlorphenylsulfanyl)-6-methylpyridazin]",logP^a),"Table 3, HPLC on reversed-phase C18, 40°C, 0.1% aqueous formic acid / acetonitrile, linear gradient 10-95% acetonitrile","4,65"
same,chromatographic logP,[1],4.65
Cc1cccc(Sc2c(C)nnc(Cl)c2-c2c(F)cccc2Cl)c1 [3-38],chromatographic logP,[1],4.41
Cc1nnc(Cl)c(-c2c(F)cccc2Cl)c1Sc1ccc(Cl)cc1Cl [3-39],chromatographic logP,[1],4.87
Cc1nnc(Cl)c(-c2c(F)cccc2Cl)c1Sc1ccccc1F [3-40],chromatographic logP,[1],3.99
Cc1nnc(Cl)c(-c2c(F)cccc2Cl)c1Sc1cccc(C(F)(F)F)c1 [3-41],chromatographic logP,[1],4.51
Cc1nnc(Cl)c(-c2c(F)cccc2Cl)c1Sc1cccc(F)c1 [3-42],chromatographic logP,[1],4.08
COc1cccc(Sc2c(C)nnc(Cl)c2-c2c(F)cccc2Cl)c1 [3-43],chromatographic logP,[1],4.03
Cc1nnc(Cl)c(-c2c(F)cccc2Cl)c1Sc1ccc(F)cc1 [3-44],chromatographic logP,[1],4.03
Cc1nnc(Cl)c(-c2c(F)cccc2Cl)c1Sc1cccc(OC(F)(F)F)c1 [3-46],chromatographic logP,[1],4.72
"Cc1nnc(Cl)c(-c2c(F)cccc2F)c1[S+]([O-])c1ccc(Cl)cc1 (stereo not shown) [4-1, 3-Chlor-4-(2,6-difluorphenyl)-5-[(4-chlorphenyl)sulfinyl]-6-methylpyridazin]",chromatographic logP,[1],3.47
"Cc1nnc(Cl)c(-c2c(F)cccc2F)c1O [5-1, 3-Chlor-4-(2,6-difluorphenyl)-5-hydroxy-6-methylpyridazin]",chromatographic logP,[1],1.41
"COc1nnc(C)c(N2CCC(C)CC2)c1-c1c(F)cccc1F [6-1, 4-(2,6-Difluorphenyl)-3-methoxy-6-methyl-5-(4-methylpiperidin-1-yl)pyridazin]",chromatographic logP,[1],3.39
"NN(Cc1ccccc1)C(=O)Cc1c(F)cccc1Cl [III-1, N-Benzyl-2-(2-chlor-6-fluorphenyl)acetohydrazid]",chromatographic logP,[1],2.69
"CCOC(=O)/C(C)=N\N(Cc1ccccc1)C(=O)Cc1c(F)cccc1Cl [V-1, Ethyl (2Z)-2-{benzyl[(2-chlor-6-fluorphenyl)acetyl] hydrazono}propanoat]",logP,given in the running text of the preparation examples; method presumably as footnote a) of the tables,3.87
"Cc1nn(Cc2ccccc2)c(=O)c(-c2c(F)cccc2Cl)c1O [VI-1, 2-Benzyl-4-(2-chlor-6-fluorphenyl)-5-hydroxy-6-methylpyridazin-3(2H)-on]",chromatographic logP,[1],2.58
"Cc1n[nH]c(=O)c(-c2c(F)cccc2Cl)c1O [VII-1, 4-(2-Chlor-6-fluorphenyl)-5-hydroxy-6-methylpyridazin-3(2H)-on]",chromatographic logP,[1],0.88
"Cc1nnc(Cl)c(-c2c(F)cccc2Cl)c1Cl [VIII-1, 3,5-Dichlor-4-(2-chlor-6-fluorphenyl)-6-methylpyridazin]",chromatographic logP,[1],3.24
"Cc1nnc(Cl)c(-c2c(F)cccc2F)c1Cl [VIII-2, 3,5-Dichlor-4-(2,6-difluorphenyl)-6-methylpyridazin]",chromatographic logP,[1],2.93

# From EP2042491A1, “Pyridazines as fungicides” (Bayer CropScience AG, priority 2007, dated 2009)
